Values after ≈ are worked out from the molar mass of the structure shown.
Assays:
Type in all cases: functional
P388 = experiment: Cytotoxicity against mouse P388 cells after 3 days by MTT assay; settings: P388, 72 h, read-out: ED50 (the source's name)
KB = experiment: Cytotoxicity against human KB cells after 3 days by MTT assay; settings: 72 h, read-out: ED50 (the source's name)
A549 = experiment: Cytotoxicity against human A549 cells after 6 days by MTT assay; settings: A549, 144 h, read-out: ED50 (the source's name)
HT-29 = experiment: Cytotoxicity against human HT-29 cells after 6 days by MTT assay; settings: HT-29, 144 h, read-out: ED50 (the source's name)

Compound `C=C(C)[C@@H](CC)CC[C@@H](C)[C@H]1CC[C@H]2[C@@H]3C[C@@H](O)C4=CC(=O)CC[C@]4(C)[C@H]3CC[C@]12C` has an EC50 (P388) of 0.7 µg/mL (≈ 1.64 µM), an EC50 (KB) of 1.3 µg/mL (≈ 3.05 µM) and an EC50 (A549) of 2.1 µg/mL (≈ 4.92 µM). It also gave an EC50 (HT-29) of 0.3 µg/mL (≈ 0.703 µM).
`C=C(C)[C@@H](CC)CC[C@@H](C)[C@H]1CC[C@H]2[C@@H]3C=C[C@@]4(OO)C[C@@H](O)CC[C@]4(C)[C@H]3CC[C@]12C` showed an EC50 (P388) of 0.5 µg/mL (≈ 1.12 µM), an EC50 (KB) of 1 µg/mL (≈ 2.25 µM) and an EC50 (A549) of 1.1 µg/mL (≈ 2.47 µM). For the same compound, the EC50 (HT-29) was 0.9 µg/mL (≈ 2.02 µM).
In the case of `C=C(C)[C@@H](CC)CC[C@@H](C)[C@H]1CC[C@H]2[C@@H]3C(=O)C=C4C[C@@H](O)CC[C@]4(C)[C@H]3CC[C@]12C`, the EC50 (P388) is reported as 0.8 µg/mL (≈ 1.87 µM), the EC50 (KB) is reported as 1 µg/mL (≈ 2.34 µM) and the EC50 (A549) is reported as 1.2 µg/mL (≈ 2.81 µM). For the same compound, the EC50 (HT-29) was 2 µg/mL (≈ 4.69 µM).
Compound `C=C(C)[C@@H](CC)CC[C@@H](C)[C@H]1CC[C@H]2[C@@H]3[C@H](OO)C=C4C[C@@H](O)CC[C@]4(C)[C@H]3CC[C@]12C` has an EC50 (P388) of 0.4 µg/mL (≈ 0.899 µM), an EC50 (KB) of 1 µg/mL (≈ 2.25 µM) and an EC50 (A549) of 0.5 µg/mL (≈ 1.12 µM). The EC50 (HT-29) was 1 µg/mL (≈ 2.25 µM).
With `C=C(C)[C@@H](CC)CC[C@@H](C)[C@H]1CC[C@H]2[C@@H]3[C@H](O)C=C4C[C@@H](O)CC[C@]4(C)[C@H]3CC[C@]12C` the EC50 (P388) was 0.2 µg/mL (≈ 0.467 µM), the EC50 (KB) was 1.1 µg/mL (≈ 2.57 µM) and the EC50 (A549) was 0.5 µg/mL (≈ 1.17 µM). The EC50 (HT-29) was 0.6 µg/mL (≈ 1.4 µM).
For `C=C(C)[C@@H](CC)CC[C@@H](C)[C@H]1CC[C@H]2[C@@H]3CC=C4C[C@@H](O)CC[C@]4(C)[C@H]3CC[C@]12C` [CLEROSTEROL], the EC50 (P388) was 1.7 µg/mL (≈ 4.12 µM), the EC50 (KB) was over 50 µg/mL and the EC50 (A549) was 0.3 µg/mL (≈ 0.727 µM). It also gave an EC50 (HT-29) of 43.1 µg/mL (≈ 104 µM).
